One experiment has as its target T1, His6-TEV-PPARγ-(234-505) (Homo sapiens, UniProt P37231).
T1 construct: The His6-TEV-PPARγ-(234-505) protein for assay was expressed and purified; TEV cleavage site (N); made in house
T1 sequence (P37231 234-505): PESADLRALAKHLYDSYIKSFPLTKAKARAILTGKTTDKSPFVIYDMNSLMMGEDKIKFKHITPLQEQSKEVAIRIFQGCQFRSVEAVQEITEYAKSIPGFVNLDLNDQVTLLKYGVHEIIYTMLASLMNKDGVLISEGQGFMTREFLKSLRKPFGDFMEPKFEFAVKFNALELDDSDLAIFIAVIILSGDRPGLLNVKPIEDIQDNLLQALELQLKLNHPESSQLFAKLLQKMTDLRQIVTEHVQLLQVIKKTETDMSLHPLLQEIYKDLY
The experiment is described as follows: TR-FRET Assay to Measure Co-R Peptide Recruitment to PPARγ. The experiment is classed as biochemical. Conditions: Co-R peptide (SMRT-ID2) recruitment; top final concentration 20 μM; read-out: TR-FRET i-Ag; AC50. Put shortly: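 Corepressor recruitment is measured by adding terbium-labeled anti-His antibody and FITC SMRT-ID2 peptide, at 5 and 200 nM final, after a 20-minute room-temperature protein–compound incubation. After one further hour, signal is converted to percent response between DMSO and 500 nM T0070907 wells.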

In the next experiment the test system is UM-UC-9 engineered cells. The experiment is described as follows: Cell proliferation / short-term viability assay, CellTiter-Glo 144 h. The experiment is classed as cell-based, human. As to conditions: read-out: CTGlo 144 h UMUC9.5, G150. Put shortly: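 Viability read by CellTiter-Glo 2.0 luminescence at day 7 versus DMSO-vehicle wells and a T0 plate measured on day 0. Cells: UM-UC-9 engineered assay-ready stocks, 500 cells/well in high-glucose DMEM with 10% FBS, 37° C, 5% CO2.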

Like-named read-outs stand apart in the source and are kept apart here.

Regarding `COc1cc(-c2cc(C(=O)N3CC[C@@H](C(=O)NCc4ncc(Cl)cn4)CC34CC4)n[nH]2)c(F)cn1` [Example 413, (R)—N-((5-chloropyrimidin-2-yl)methyl)-4-(5-(5-fluoro-2-methoxypyridin-4-yl)-1H-pyrazole-3-carbonyl)-4-azaspiro[2.5]octane-7-carboxamide], the AC50 at His6-TEV-PPARγ-(234-505) was 0.0152 µM. Moreover, in the experiment with UM-UC-9 engineered cells (Homo sapiens, UM-UC-9, 144 h), the IC50 is 0.055 µM.
For `COc1cc(-c2cc(C(=O)N3CCC(C(=O)NC(C)c4ccc5[nH]nc(C)c5c4)CC3)n[nH]2)c(F)cn1` (racemic) [Example 281, 1-(5-(5-fluoro-2-methoxypyridin-4-yl)-1H-pyrazole-3-carbonyl)-N-(1-(3-methyl-1H-indazol-5-yl)ethyl)piperidine-4-carboxamide], in that order: 0.101 µM and 0.632 µM.
As to `COc1cc(-c2cc(C(=O)N3CCC(C(=O)NCc4nccc(C(F)F)n4)CC3)n[nH]2)c(Cl)cn1` [Example 238, 1-(5-(5-chloro-2-methoxypyridin-4-yl)-1H-pyrazole-3-carbonyl)-N-((4-(difluoromethyl)pyrimidin-2-yl)methyl)piperidine-4-carboxamide], the AC50 on His6-TEV-PPARγ-(234-505) amounted to 0.839 µM. The IC50 in the experiment on UM-UC-9 engineered cells (Homo sapiens, UM-UC-9, 144 h) came out at 5.16 µM.
The corresponding values for `COc1cc(-c2cc(C(=O)N3CC[C@H](C(=O)NCc4ccncc4C(F)(F)F)CC34CC4)[nH]n2)c(F)cn1` [Example 525, (S)-4-(3-(5-fluoro-2-methoxypyridin-4-yl)-1H-pyrazole-5-carbonyl)-N-((3-(trifluoromethyl)pyridin-4-yl)methyl)-4-azaspiro[2.5]octane-7-carboxamide] are 0.007 µM and 0.019 µM.
Turning to `COc1cc(-c2cc(C(=O)N3CCC(C(=O)NCc4ccc5cn[nH]c5c4)CC3)n[nH]2)c(Cl)cn1` [Example 180, N-((1H-indazol-6-yl)methyl)-1-(5-(5-chloro-2-methoxypyridin-4-yl)-1H-pyrazole-3-carbonyl)piperidine-4-carboxamide], the AC50 on His6-TEV-PPARγ-(234-505) is 0.144 µM. Moreover, the IC50 in the experiment on UM-UC-9 engineered cells (Homo sapiens, UM-UC-9, 144 h) was determined as 0.707 µM.
As to `COc1cc(-c2cc(C(=O)N3CCC(C(=O)NC4CCC(O)(C(F)(F)F)CC4)CC34CC4)n[nH]2)c(F)cn1` (mixture of isomers) [Example 169, (R)-4-(5-(5-fluoro-2-methoxypyridin-4-yl)-1H-pyrazole-3-carbonyl)-N-((1r,4R)-4-hydroxy-4-(trifluoromethyl)cyclohexyl)-4-azaspiro[2.5]octane-7-carboxamide and (S)-4-(5-(5-fluoro-2-methoxypyridin-4-yl)-1H-pyrazole-3-carbonyl)-N-((1r,4S)-4-hydroxy-4-(trifluoromethyl)cyclohexyl)-4-azaspiro[2.5]octane-7-carboxamide], the AC50 on His6-TEV-PPARγ-(234-505) was 0.0045 µM. Also, the IC50 in the experiment on UM-UC-9 engineered cells is 0.0021 µM.
For the compound `COc1cc(-c2cc(C(=O)N3CCC(C(=O)NC4(C)CCC(C)CC4)CC3)n[nH]2)c(Cl)cn1` (mixture of isomers) [Example 163, 1-(5-(5-chloro-2-methoxypyridin-4-yl)-1H-pyrazole-3-carbonyl)-N (1,4-dimethylcyclohexyl)piperidine-4-carboxamide], the AC50 at His6-TEV-PPARγ-(234-505) was found to be 0.447 µM. Further, the IC50 with UM-UC-9 engineered cells (Homo sapiens, UM-UC-9, 144 h) was 0.747 µM.
For `COc1cc(-c2cc(C(=O)N3CCC(C(=O)NC(C)c4ncc(F)cc4Cl)CC34CC4)n[nH]2)c(F)cn1` (mixture of isomers) [Example 377, (S)—N—((R)-1-(3-chloro-5-fluoropyridin-2-yl)ethyl)-4-(5-(5-fluoro-2-methoxypyridin-4-yl)-1H-pyrazole-3-carbonyl)-4-azaspiro[2.5]octane-7-carboxamide and (S)—N—((S)-1-(3-chloro-5-fluoropyridin-2-yl)ethyl)-4-(5-(5-fluoro-2-methoxypyridin-4-yl)-1H-pyrazole-3-carbonyl)-4-azaspiro[2.5]octane-7-carboxamide], the AC50 at His6-TEV-PPARγ-(234-505) was determined as 0.0202 µM. Also, the IC50 in the experiment with UM-UC-9 engineered cells was determined as 0.0259 µM.
In the case of `COc1cc(-c2cc(C(=O)N3CCC(C(=O)NCc4cccc(F)c4F)CC3)n[nH]2)c(Cl)cn1` [Example 155, 1-(5-(5-chloro-2-methoxypyridin-4-yl)-1H-pyrazole-3-carbonyl)-N-(2,3-difluorobenzyl)piperidine-4-carboxamide], the AC50 at His6-TEV-PPARγ-(234-505) turned out to be 0.103 µM. The IC50 with UM-UC-9 engineered cells (Homo sapiens, UM-UC-9, 144 h) is 0.121 µM.
In the case of `COc1cc(-c2cc(C(=O)N3CC[C@H](C(=O)NC4CCC(O)(C(F)(F)F)C(O)C4)CC34CC4)n[nH]2)c(F)cn1` (single isomer, unassigned) [Example 474-D], the AC50 on His6-TEV-PPARγ-(234-505) was determined as 0.331 µM. Further, the IC50 with UM-UC-9 engineered cells was determined as 2.02 µM.
`COc1cc(-c2cc(C(=O)N3CCC(NC(=O)C4CCC(O)(C(F)(F)F)CC4)CC34CC4)n[nH]2)c(F)cn1` (mixture of isomers) [Example 347]: the AC50 on His6-TEV-PPARγ-(234-505) is 0.317 µM. Besides, the IC50 in the experiment on UM-UC-9 engineered cells stood at 1.86 µM.
On to `COc1cc(-c2cc(C(=O)N3CC[C@H](C(=O)NCc4ncc(F)cc4N4CCN(C)CC4)CC34CC4)n[nH]2)c(F)cn1` [Example 404, (S)-4-(5-(5-fluoro-2-methoxypyridin-4-yl)-1H-pyrazole-3-carbonyl)-N-((5-fluoro-3-(4-methylpiperazin-1-yl)pyridin-2-yl)methyl)-4-azaspiro[2.5]octane-7-carboxamide], for which the AC50 at His6-TEV-PPARγ-(234-505) stood at 0.164 µM. Besides, the IC50 in the experiment with UM-UC-9 engineered cells (Homo sapiens, UM-UC-9, 144 h) was 0.887 µM.
`COc1cc(-c2cc(C(=O)N3CCC(C(=O)NC4CCN(c5cnnc(C)c5)C4)CC34CC4)n[nH]2)c(F)cn1` (mixture of isomers) [Example 452, (S)-4-(5-(5-fluoro-2-methoxypyridin-4-yl)-1H-pyrazole-3-carbonyl)-N—((S)-1-(6-methylpyridazin-4-yl)pyrrolidin-3-yl)-4-azaspiro[2.5]octane-7-carboxamide and ('S)-4-(5-(5-fluoro-2-methoxypyridin-4-yl)-1H-pyrazole-3-carbonyl)-N—((R)-1-(6-methylpyridazin-4-yl)pyrrolidin-3-yl)-4-azaspiro[2.5]octane-7-carboxamide]: the AC50 at His6-TEV-PPARγ-(234-505) came out at 0.0334 µM. Also, the IC50 with UM-UC-9 engineered cells worked out at 2.39 µM.
For `COc1cc(-c2cc(C(=O)N3CCC(C(=O)NC4CCC(O)(C(F)(F)F)CC4)CC3(C)C)n[nH]2)c(F)cn1` (single isomer, unassigned) [Example 407-A], the AC50 at His6-TEV-PPARγ-(234-505) was 0.016 µM. Also, the IC50 in the experiment with UM-UC-9 engineered cells was determined as 0.014 µM.
`COc1cc(-c2cc(C(=O)N3CC[C@H](C(=O)NC4CCC(O)(C(F)(F)F)C(O)C4)CC34CC4)n[nH]2)c(F)cn1` (single isomer, unassigned) [Example 474-E]: at His6-TEV-PPARγ-(234-505), the AC50 worked out at 1.5 µM. The IC50 in the experiment with UM-UC-9 engineered cells is 1.93 µM.
For `CCOC1(C(F)(F)F)CCC(NC(=O)[C@H]2CCN(C(=O)c3cc(-c4cc(C)ncn4)[nH]n3)C3(CC3)C2)CC1` (mixture of isomers) [Example 308-A, (S)—N-(4-ethoxy-4-(trifluoromethyl)cyclohexyl)-4-(5-(6-methylpyrimidin-4-yl)-1H-pyrazole-3-carbonyl)-4-azaspiro[2.5]octane-7-carboxamide], the AC50 at His6-TEV-PPARγ-(234-505) came to 0.0028 µM. For the same compound, the IC50 in the experiment with UM-UC-9 engineered cells (Homo sapiens, UM-UC-9, 144 h) turned out to be 0.0056 µM.
As for `COc1cc(-c2cc(C(=O)N3CCC(C(=O)NC4CCCn5cc(C(F)(F)F)nc54)CC34CC4)n[nH]2)c(F)cn1` (mixture of isomers) [Example 502, (S)-4-(5-(5-fluoro-2-methoxypyridin-4-yl)-1H-pyrazole-3-carbonyl)-N—((S)-2-(trifluoromethyl)-5,6,7,8-tetrahydroimidazo[1,2-a]pyridin-8-yl)-4-azaspiro[2.5]octane-7-carboxamide and (S)-4-(5-(5-fluoro-2-methoxypyridin-4-yl)-1H-pyrazole-3-carbonyl)-N—((R)-2-(trifluoromethyl)-5,6,7,8-tetrahydroimidazo[1,2-a]pyridin-8-yl)-4-azaspiro[2.5]octane-7-carboxamide], on His6-TEV-PPARγ-(234-505), the AC50 stood at 0.0118 µM. For the same compound, the IC50 with UM-UC-9 engineered cells is 0.0506 µM.
For the compound `COc1cc(-c2cc(C(=O)N3CCC(C(=O)NCc4c(F)ccc(F)c4F)CC3)n[nH]2)c(Cl)cn1` [Example 123, 1-(5-(5-chloro-2-methoxypyridin-4-yl)-1H-pyrazole-3-carbonyl)-N-(2,3,6-trifluorobenzyl)piperidine-4-carboxamide], the AC50 at His6-TEV-PPARγ-(234-505) is 0.0128 µM. The IC50 in the experiment with UM-UC-9 engineered cells (Homo sapiens, UM-UC-9, 144 h) was 0.1 µM.
Turning to `CO[C@]1(C(F)(F)F)CC[C@H](NC(=O)[C@@H]2CCN(C(=O)c3cc(-c4cc(C)ncc4F)[nH]n3)C3(CC3)C2)CC1` (single isomer, unassigned) [Example 293-B], the AC50 on His6-TEV-PPARγ-(234-505) was 1.64 µM. The IC50 in the experiment on UM-UC-9 engineered cells (Homo sapiens, UM-UC-9, 144 h) came to 3.24 µM.
For `COc1cc(-c2cc(C(=O)N3CCC(C(=O)NCC45CCC(O)(CC4)C5)CC34CC4)n[nH]2)c(F)cn1` (single isomer, unassigned) [Example 333-A], the AC50 on His6-TEV-PPARγ-(234-505) stood at 1.96 µM. Also, the IC50 in the experiment with UM-UC-9 engineered cells worked out at 9.44 µM.
Consider `COc1cc(-c2cc(C(=O)N3CC[C@H](C(=O)NC4C5CN(C6COC6)CC54)CC34CC4)n[nH]2)c(F)cn1` (stereo partly drawn) [Example 429, (7S)-4-(5-(5-fluoro-2-methoxypyridin-4-yl)-1H-pyrazole-3-carbonyl)-N-(3-(oxetan-3-yl)-3-azabicyclo[3.1.0]hexan-6-yl)-4-azaspiro[2.5]octane-7-carboxamide], for which the AC50 at His6-TEV-PPARγ-(234-505) stood at 0.347 µM. Besides, the IC50 in the experiment on UM-UC-9 engineered cells (Homo sapiens, UM-UC-9, 144 h) came to 1.04 µM.

For the origin of these results see US12606541B2, “PPARg modulators and methods of use” (Eisai R&D Management Co., Ltd., priority 2020, dated 2026).
